Results published in patent EP4748839A1 (CSPC Zhongqi Pharmaceutical Technology (Shijiazhuang) Co., …, priority 2023, dated 2025).

Biological target: T1, GLP-1R (Homo sapiens, UniProt P43220)
T1 construct: expressed in transfected cells
Assay: GLP-1R agonistic effect in GLP1R-cAmp-Luc cells (luciferase reporter; titled 'Enzymatic assay')
Format: cell-based
Conditions: for EC50: 4 hours incubation, firefly luciferin signal; for EC50 of Positive reference / EC50 of Compound of the Present Application: Positive reference is PF-06882961
Protocol: The GLP-1R agonistic effects of the test compounds were determined using GLP1R-cAmp-Luc cells. 1) The test compound was dissolved in DMSO and mixed well until the test compound was completely dissolved. The test compounds were dissolved in DMSO to prepare 10 mM stock solutions. All compounds were diluted with DMEM medium (high sugar, Puromycin^+, Hygromycin B^+) to an initial concentration of 1250 nM, and then subjected to 5-fold serial dilution to a total of 7 concentration gradients. The GLP1R-cAmp-Luc cells were seeded in white-wall 96-well cell culture plates at a density of 1×10^5/mL, with 90 µL cell suspension per well; the test compound at each of the 7 concentration gradients was added at 10 µL per well, with the actual initial working concentration of 125 nM; and the cells were placed in a 37 °C, 5% CO2 cell incubator for 4 hours; 2) 100 µL of luciferin potassium salt solution diluted to 300 µg/mL in PBS was added to each well at a working concentration of 150 µg/mL and incubated at room temperature for 30 minutes; 3) fluorescence signals of firefly luciferin were measured with a multifunctional microplate reader (PerkinElmer, Nivo); and the fluorescence values were processed using GraphPad Prism software to calculate EC50 values.

T1 sequence (P43220 24-463, species assumed): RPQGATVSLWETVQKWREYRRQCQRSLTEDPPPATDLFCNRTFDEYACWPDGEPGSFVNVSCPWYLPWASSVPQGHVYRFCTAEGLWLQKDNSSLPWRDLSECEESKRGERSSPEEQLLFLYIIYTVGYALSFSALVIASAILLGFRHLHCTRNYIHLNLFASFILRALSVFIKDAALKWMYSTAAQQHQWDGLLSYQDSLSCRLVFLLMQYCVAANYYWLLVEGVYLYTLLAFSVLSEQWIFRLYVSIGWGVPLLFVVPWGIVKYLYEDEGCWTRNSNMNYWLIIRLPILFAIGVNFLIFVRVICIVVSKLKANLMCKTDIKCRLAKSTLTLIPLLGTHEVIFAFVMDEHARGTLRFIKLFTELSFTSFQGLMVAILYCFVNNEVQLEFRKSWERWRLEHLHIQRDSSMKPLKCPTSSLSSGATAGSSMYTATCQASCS

Structure (SMILES)	EC50 [nM]	EC50 of Positive reference / EC50 of Compound of the Present Application
COc1cc(C(=O)O)cc2c1nc(Cc1c(F)cc(-c3ccc(Br)c(OCc4ccc(Cl)cc4F)n3)c3c1CCO3)n2C[C@@H]1CCO1 [Compound 109, (S)-2-((7-(5-bromo-6-((4-chloro-2-fluorobenzyl)oxy)pyridin-2-yl)-5-fluoro-2,3-dihydrobenzofuran-4-yl)methyl)-4-methoxy-1-(oxetan-2-ylmethyl)-1H-benzo[d]imidazole-6-carboxylic acid]	1 to 5	–
O=C(O)c1ccc2nc(Cc3ccc(-c4cccc(OCc5ccc(Cl)cc5F)n4)c4[nH]ccc34)n(C[C@@H]3CCO3)c2c1 [Compound 9, (S)-2-((7-(6-((4-chloro-2-fluorobenzyl)oxy)pyridin-2-yl)-1H-indol-4-yl)methyl)-1-(oxetan-2-ylmethyl)-1H-benzo[d]imidazole-6-carboxylic acid]	1 to 5	–
COc1cc(C(=O)O)cc2c1nc(Cc1c(F)cc(-c3ccnc(OCc4ccc(Cl)cc4F)n3)c3c1CCO3)n2CC1(CF)CC1 [Compound 112, 2-((7-(2-((4-Chloro-2-fluorobenzyl)oxy)pyrimidin-4-yl)-5-fluoro-2,3-dihydrobenzofuran-4-yl)methyl)-1-((1-(fluoromethyl)cyclopropyl)methyl)-4-methoxy-1H-benzo[d]imidazole-6-carboxylic acid]	1 to 5	–
CCn1cncc1Cn1c(Cc2c(F)cc(-c3cccc(OCc4ccc(Cl)cc4F)n3)c3c2CCO3)nc2c(OC)cc(C(=O)O)cc21 [Compound 111]	1 to 5	–
COc1cc(C(=O)O)cc2c1nc(Cc1c(F)cc(-c3cccc(OCc4ccc(Cl)cc4OC(F)F)n3)c3c1CCO3)n2C[C@@H]1CCO1 [Compound 84, (S)-2-((7-(6-((4-chloro-2-(difluoromethoxy)benzyl)oxy)pyridin-2-yl)-5-fluoro-2,3-dihydrobenzofuran-4-yl)methyl)-4-methoxy-1-(oxetan-2-ylmethyl)-1H-benzo[d]imidazole-6-carboxylic acid]	≤ 1	Ratio ≥10
N#Cc1ccc(COc2cccc(-c3cc(Cl)c(Cc4nc5ccc(C(=O)O)cc5n4C[C@@H]4CCO4)c4c3OCC4)n2)c(F)c1 [Compound 7, (S)-2-((5-chloro-7-(6-((4-cyano-2-fluorobenzyl)oxy)pyridin-2-yl)-2,3-dihydrobenzofuran-4-yl)methyl)-1-(oxetan-2-ylmethyl)-1H-benzo[d]imidazole-6-carboxylic acid]	≤ 1	Ratio ≥10
CC(C)Oc1cc(C(=O)O)cc2c1nc(Cc1c(F)cc(-c3ccnc(OCc4ccc(Cl)cc4F)n3)c3c1CCO3)n2C[C@@H]1CCO1 [Compound 119, (S)-2-((7-(2-((4-chloro-2-fluorobenzyl)oxy)-pyrimidin-4-yl)-5-fluoro-2,3-dihydrobenzofuran-4-yl)methyl)-4-isopropoxy-1-(oxetan-2-ylmethyl)-1H-benzo[d]imidazole-6-carboxylic acid]	1 to 5	–
N#CCC1(Cn2c(Cc3c(Cl)cc(-c4cccc(OCc5ccc(C#N)cc5F)n4)c4c3CCO4)nc3ccc(C(=O)O)cc32)CC1 [Compound 18, 2-((5-chloro-7-(6-((4-cyano-2-fluorobenzyl)oxy)pyridin-2-yl)-2,3-dihydrobenzofuran-4-yl)methyl)-1-((1-(cyanomethyl)cyclopropyl)methyl)-1H-benzo[d]imidazole-6-carboxylic acid]	1 to 5	–
COc1cc(C(=O)O)cc2c1nc(Cc1c(F)cc(-c3cccc(OCc4ccc(C#N)cc4F)n3)c3c1CCO3)n2C[C@@H]1CCO1 [Compound 100, (S)-2-((7-(6-((4-cyano-2-fluorobenzyl)oxy)pyridin-2-yl)-5-fluoro-2,3-dihydrobenzofuran-4-yl)methyl)-4-methoxy-1-(oxetan-2-ylmethyl)-1H-benzo[d]imidazole-6-carboxylic acid]	≤ 1	Ratio ≥10
COc1cc(C(=O)O)cc2c1nc(Cc1c(F)cc(-c3ncc(F)c(OCc4ccc(C5COC5)cc4F)n3)c3c1CCO3)n2C[C@@H]1CCO1 [Compound 129, (S)-2-((7-(5-fluoro-4-((2-fluoro-4-(oxetan-3-yl)benzyl)oxy)pyrimidin-2-yl)-5-fluoro-2,3-dihydrobenzofuran-4-yl)methyl)-4-methoxy-1-(oxetan-2-ylmethyl)-1H-benzo[d]imidazole-6-carboxylic acid]	≤ 1	–
O=C(O)c1ccc2nc(Cc3c(F)cc(-c4cccc(OCc5ccc(Cl)cc5F)n4)c4c3CCO4)n(C[C@@H]3CCO3)c2c1 [Compound 12, (S)-2-((7-(6-((4-chloro-2-fluorobenzyl)oxy)pyridin-2-yl)-5-fluoro-2,3-dihydrobenzofuran-4-yl)methyl)-1-(oxetan-2-ylmethyl)-1H-benzo[d]imidazole-6-carboxylic acid]	≤ 1	Ratio ≥10
N#Cc1ccc(COc2cccc(-c3ccc(Cc4nc5ccc(C(=O)O)cc5n4C[C@@H]4CCO4)c4c3OCO4)n2)c(F)c1 [Compound 1, (S)-2-((7-(6-((4-cyano-2-fluorobenzyl)oxy)pyridin-2-yl)benzo[d][1,3]dioxolan-4-yl)methyl)-1-(oxetan-2-ylmethyl)-1H-benzo[d]imidazole-6-carboxylic acid]	5 to 10	–
COc1cc(C(=O)O)cc2c1nc(Cc1c(F)cc(-c3nccc(OCc4ccc(C5COC5)cc4F)n3)c3c1CCO3)n2C[C@@H]1CCO1 [Compound 127, (S)-2-((7-(4-((2-fluoro-4-(oxetan-3-yl)benzyl)oxy)pyrimidin-2-yl)-5-fluoro-2,3-dihydrobenzofuran-4-yl)methyl)-4-methoxy-1-(oxetan-2-ylmethyl)-1H-benzo[d]imidazole-6-carboxylic acid]	1 to 5	–
COc1cc(C(=O)O)cc2c1nc(Cc1c(F)cc(-c3ccc(F)c(OCc4ccc(C#N)cc4F)n3)c3c1CCO3)n2C[C@@H]1CCO1 [Compound 115]	≤ 1	Ratio ≥10
O=C(O)c1ccc2nc(Cc3c(F)cc(-c4ccnc(OCc5ccc(Cl)cc5F)n4)c4c3CCO4)n(C[C@@H]3CCO3)c2c1 [Compound 124, (S)-2-((7-(2-((4-chloro-2-fluorobenzyl)oxy)pyrimidin-4-yl)-5-fluoro-2,3-dihydrobenzofuran-4-yl)methyl)-1-(oxetan-2-ylmethyl)-1H-benzo[d]imidazole-6-carboxylic acid]	≤ 1	–

Now from value to compound:

EC50 [nM]	EC50 of Positive reference / EC50 of Compound of the Present Application	Structure (SMILES)
≤ 1	Ratio ≥10	N#Cc1ccc(COc2cccc(-c3cc(F)c(Cc4nc5c(F)cc(C(=O)O)cc5n4C[C@@H]4CCO4)c4c3OCC4)n2)c(F)c1 [Compound 13, (S)-2-((7-(6-((4-cyano-2-fluorobenzyl)oxy)pyridin-2-yl)-5-fluoro-2,3-dihydrobenzofuran-4-yl)methyl)-4-fluoro-1-(oxetan-2-ylmethyl)-1H-benzo[d]imidazole-6-carboxylic acid]
≤ 1	Ratio ≥10	COc1cc(C(=O)O)cc2c1nc(Cc1c(F)cc(-c3ccnc(OCc4ccc(Cl)cc4F)n3)c3c1CCO3)n2C[C@@H]1CCO1 [Compound 106, (S)-2-((7-(2-((4-chloro-2-fluorobenzyl)oxy)pyrimidin-4-yl)-5-fluoro-2,3-dihydrobenzofuran-4-yl)methyl)-4-methoxy-1-(oxetan-2-ylmethyl)-1H-benzo[d]imidazole-6-carboxylic acid]
≤ 1	Ratio ≥10	COc1cc(C(=O)O)cc2c1nc(Cc1c(F)cc(-c3cccc(OCc4ccc(Cl)cc4F)n3)c3c1CCO3)n2C[C@@H]1CCO1 [Compound 81, (S)-2-((7-(6-((4-chloro-2-fluorobenzyl)oxy)pyridin-2-yl)-5-fluoro-2,3-dihydrobenzofuran-4-yl)methyl)-4-methoxy-1-(oxetan-2-ylmethyl)-1H-benzo[d]imidazole-6-carboxylic acid]
≤ 1	Ratio ≥10	COc1cc(C(F)(F)F)ccc1COc1nccc(-c2cc(F)c(Cc3nc4c(OC)cc(C(=O)O)cc4n3C[C@@H]3CCO3)c3c2OCC3)n1 [Compound 110, (S)-2-((7-(2-((2-methoxy-4-(trifluoromethyl)benzyl)oxy)pyrimidin-4-yl)-5-fluoro-2,3-dihydrobenzofuran-4-yl)methyl)-4-methoxy-1-(oxetan-2-ylmethyl)-1H-benzo[d]imidazole-6-carboxylic acid]
≤ 1	–	COc1cc(C(F)(F)F)ccc1COc1cccc(-c2cc(F)c(Cc3nc4c(OCC(F)F)cc(C(=O)O)cc4n3CC3(CF)CC3)c3c2OCC3)n1 [Compound 79]
≤ 1	Ratio ≥10	COc1cc(C(F)(F)F)ccc1COc1nc(-c2cc(F)c(Cc3nc4c(OC)cc(C(=O)O)cc4n3C[C@@H]3CCO3)c3c2OCC3)ccc1F [Compound 116, (S)-2-((7-(5-fluoro-6-((2-methoxy-4-(trifluoromethyl)benzyl)oxy)pyridin-2-yl)-5-fluoro-2,3-dihydrobenzofuran-4-yl)methyl)-4-methoxy-1-(oxetan-2-ylmethyl)-1H-benzo[d]imidazole-6-carboxylic acid]
≤ 1	–	O=C(O)c1ccc2nc(Cc3c(F)cc(-c4cccc(OCc5ccc(Cl)cc5OC(F)F)n4)c4c3CCO4)n(C[C@@H]3CCO3)c2c1 [Compound 95, (S)-2-((7-(6-((4-chloro-2-(difluoromethoxy)benzyl)oxy)pyridin-2-yl)-5-fluoro-2,3-dihydrobenzofuran-4-yl)methyl)-1-(oxetan-2-ylmethyl)-1H-benzimidazole-6-carboxylic acid]
